Test results published in patent US9376440B2, “Pyrrolobenzodiazepines as antiproliferative agents” (MEDIMMUNE LIMITED, priority 2012, dated 2016).
pIC50: −log10 of the molar value.

Legend:
primary CLL cells = assay: Annexin V/propidium iodide flow cytometry assay in primary CLL cells; format: cell-based; conditions: CLL cell
Method: The cytotoxicity potential of the compounds of the invention 16c-h was also compared with the comparative compounds 16a, 16b and GWL-78 in a primary CLL cell lines using the Annexin V assay (van Engeland, M, et al., Cytometry 1998, 31, 1-9), as described below.
Freshly isolated peripheral blood CLL cells (1×10^8 mL^−1) were cultured in RPMI medium (Invitrogen, Paisley, U.K.) supplemented with 100 U/mL penicillin, […] streptomycin, and 10% fetal calf serum. The cells were incubated at 37° C. in a humidified 5% CO2 atmosphere in the presence of each compound. All compounds were dissolved in DMSO and were evaluated in serial dilutions against the primary CLL cells. In addition, control cultures were carried out to which no drug was added. The cytotoxic effects of the compounds were quantified using an annexin V/propidium iodide flow cytometry assay (Bender Medsystems, Vienna, Austria). All assays were performed in duplicate, and LD50 values were calculated from sigmoidal dose-response curves using the Prism 6.0 software (Graphpad Software Inc., San Diego, Calif.). The sigmoidal dose-response curves were derived by plotting log [compound concentration] against the percentage apoptosis induced by that concentration. A wide range of concentrations were used to establish the biologically active range for each individual compound.

NFκB = assay: Immunohistochemical staining of xenograft tumour cross-sections; format: in vivo, mouse; conditions: treated vs controls
Method: (§1) An in vivo study of 16f was carried out in a pancreatic cancer xenograft mouse model, in a similar manner to the above. The drug (16f) treated group was administered an IV dose of 300 μg/Kg/day for 5 consecutive days followed by 2 drug free days, and the cycle was continued for 3 weeks.

Mia Paca 2 = assay: MTT cytotoxicity assay, Mia Paca 2; format: cell-based; conditions: Homo sapiens, MIA PaCa-2, 96 h, read-out: IC50 (nM) Mia Paca 2
Method: (§2) The cytotoxicity potential of the compounds of the invention 16c-h was compared with the comparative compounds 16a, 16b and GWL-78 in a number of tumour cell lines and the non-cancer cell line WI38 after 96 hours exposure using the MTT (3-(4,5-Dimethylthiazol-2-yl)-2,5-diphenyltetrazolium bromide) colorimetric assay, as described below.
(§3) A panel of several types of human cancer cell lines including epidermoid (A431), lung (A549), ovarian (A2780) and breast (MCF7 and MDAMB-231), as well as the non-tumour cell line WI38, were used to determine the cytotoxicity of the compounds. The cells were grown in normal conditions at 37° C. under a 5% CO2 humidified atmosphere, either in Dulbecco's Modified Eagle Medium or Modified Eagle Medium (depending on the cell line), supplemented with 10% fetal bovine serum (Biosera, UK), 1% L-glutamine, 1% non-essential amino acids and 0.05% hydrocortisone (Gibco, Invitrogen, USA). Cells were then seeded into 96-well plates in a total volume of 160 μl, and allowed to reach a 30-40% degree of confluence before starting the experiment. The ligands were dissolved in sterilized ultrapure water at a maximum concentration of 100 μM, and serial decimal dilutions prepared. These were added to the cells in a volume of 40 μl. After 96 hours of continuous exposure to each ligand, the cytotoxicity was determined by the MTT (3-(4,5-Dimethylthiazol-2-yl)-2,5-diphenyltetrazolium bromide) (Lancaster Synthesis Ltd, UK) colorimetric assay (Skehan P, S. R., et al., Journal of the National Cancer Institute 1990, 82, 1107). Absorbance was quantified by spectrophotometry at A=570 nm (ELx808, Bio-Tek Instruments, Inc., USA). IC50 values were calculated by a dose-response analysis using the Origin 6.0™ software.

SMAD = assay: Transcription Factor Activation Profiling Array Assay (Signosis), HeLa; format: cell-based; conditions: 10 nM, 4 hours
Method: (§4) 16f was evaluated in a commercial Transcription Factor Activation Profiling Array Assay™ (Signosis) using the HeLa cell line. In this assay the activities of 48 transcription factors could be monitored simultaneously using a collection of biotin-labeled DNA probes based on the consensus sequences of individual transcription factor DNA-binding sites. […] The activity of NF-κB was reduced by almost 50%.

NFAT = assay: as above; format: cell-based; conditions: 10 nM, 4 hours
Method: as §4

OCT-4 = assay: as above; format: cell-based; conditions: 10 nM, 4 hours
Method: as §4

EGR = assay: as above; format: cell-based; conditions: 10 nM, 4 hours
Method: as §4

NF-κB = assay: as above; format: cell-based; conditions: 10 nM, 4 hours
Method: as §4

[1] = MTD (maximum tolerated dose) study, intraperitoneal dosing; format: in vivo, mouse
Method: Initially a small scale study was carried out to determine the MTD (maximum tolerated dose) in Swiss-Webster mice using intraperitoneal dosing (IP). […] As 16f provided a marginally better toxicity profile in the MTD study, it was decided to carry out more extensive in vivo tumour xenograft studies on this molecule.

[2] = test system: MDA MB 231 breast cancer xenograft; assay: ER-negative MDA MB 231 breast cancer xenograft study; format: in vivo, mouse; conditions: for in vivo antitumour activity compared to control mice: female MF1 nude mice
Method: In vivo studies of the activity of 16f were carried out in an ER-negative MDA MB 231 breast cancer xenograft in a mouse model. The human breast cancer cell line MDA-MB-231 (5×10^8 cells) was employed to establish xenografts in the flanks of female MF1 nude mice, 2-3 months old and weighing 20-25 g. Subsequent passaging was by the subcutaneous implantation of small tumour pieces (approx 1 mm^3) into the flank. When the tumours reached approx. 0.06 cm^3 (three weeks post implantation) they were divided into 3 groups of 4 mice. The drug treated groups were administered with an IV dose (in DMSO) of either 250 μg/Kg/day or 300 μg/Kg/day for 5 consecutive days followed by two drug free days for 3 weeks, followed by 2 consecutive days in week 4 at which point the dosage was stopped.

phosphorylated IκBα = assay: Western Blotting in CLL cells, surrogate for NF-κB activity; format: cell-based; conditions: 24 hours incubation, concentrations down to 0.1 nM
Text: (§5) Based on the hypothesis that 16f may down-regulate the expression of NF-κB-dependent genes (e.g., IκB, BCL2, BCLXL) by binding to the cognate DNA sequence of NF-κB, thereby blocking interaction of the transcription factor protein and inhibiting transcription of a number of genes, it was decided to explore this possibility in CLL cells in which NF-κB signaling is known to be active and closely correlates with the initiation and progression of malignancy.

phosphorylated-p65 = assay: as above; format: cell-based; conditions: 24 hours incubation
Text: as §5

A431 (epidermoid) = assay: MTT cytotoxicity assay, A431; format: cell-based; conditions: Homo sapiens, A-431, 96 h, read-out: IC50 (nM) A431
Method: as §2, §3

[3] = test system: Mia Paca 2 pancreatic cancer xenograft; assay: Mia Paca 2 pancreatic cancer xenograft in mouse model; format: in vivo
Method: as §1

A2780 (ovarian) = assay: MTT cytotoxicity assay, A2780; format: cell-based; conditions: Homo sapiens, A2780, 96 h, read-out: IC50 (nM) A2780
Method: as §2, §3

A549 (lung) = assay: MTT cytotoxicity assay, A549; format: cell-based; conditions: Homo sapiens, A549, 96 h, read-out: IC50 (nM) A549
Method: as §2, §3

WI38 = assay: MTT cytotoxicity assay, non-tumour cell line WI38; format: cell-based; conditions: Homo sapiens, WI-38, 96 h, read-out: IC50 (nM) WI38
Method: as §2, §3

Which results are given for `COC(=O)c1cc(-c2ccc(NC(=O)c3nc(NC(=O)CCCOc4cc5c(cc4OC)C(=O)N4CCC[C@H]4C=N5)cn3C)cc2)cn1C` [Compound 16f, (S)-methyl 4-(4-(4-(4-(7-methoxy-5-oxo-2,3,5,11a-tetrahydro-1H-pyrrolo[2,1-c][1,4]benzodiazepine-8-yloxy)butanamido)-1-methyl-1H-imidazole-2-carboxamido)phenyl)-1-methyl-1H-pyrrole-2-carboxylate]?
pIC50 (primary CLL cells): 9.77; immunohistochemical staining findings (NFκB): consistent with NFκB inhibition; IC50 (Mia Paca 2): 0.0021 nM; down-regulation of SMAD activity (SMAD): at least 30%; down-regulation of NFAT activity (NFAT): at least 30%; down-regulation of OCT-4 activity (OCT-4): at least 30%; down-regulation of EGR activity (EGR): at least 30%; reduction of NF-κB activity (NF-κB; specific value): ~50%; down-regulation of NF-κB activity (NF-κB; top five, at least): at least 30%; weight loss ([1]; Swiss-Webster mice, IP, 400 μg/Kg/day): insignificant weight loss; weight loss or other signs of toxicity ([1]; repeat MTD experiment, 350 μg/Kg/day): did not show any weight loss or other signs of toxicity; tumour re-growth after last IV dose ([2]; 300 μg/Kg dose level, up to 3 weeks after last dose): did not re-grow; in vivo antitumour activity compared to control mice ([2]; IV 250 μg/Kg/day): prominent in vivo antitumour activity; in vivo antitumour activity compared to control mice ([2]; IV 300 μg/Kg/day): prominent in vivo antitumour activity; signs of toxicity ([2]; IV 250 and 300 μg/Kg dose levels): without any signs of toxicity; suppression of phosphorylated IκBα (phosphorylated IκBα): significant suppression; effect on phosphorylated-p65 (phosphorylated-p65): only a marginal effect; IC50 (A431 (epidermoid)): 0.018 nM; tumour growth after last administered dose ([3]; 300 μg/Kg, up to 21 days after last dose): no growth was observed; signs of toxicity ([3]; IV 300 μg/Kg dose level): without any signs of toxicity; antitumour activity compared to control mice ([3]; IV 300 μg/Kg/day, 5 days on/2 days off, 3 weeks): prominent antitumour activity; IC50 (A2780 (ovarian)): 0.021 nM; IC50 (A549 (lung)): 0.034 nM; IC50 (WI38): 129 nM
